Assay results as given in ChEMBL document CHEMBL3046929, “Ethyl 4-[2-(6-Methyl-3-pyridyloxy)butyloxy]benzoate, a novel anti-juvenile hormone agent” (2003).
Activity calls are given as the source filed them. The calls are words filed in the database; no cut-off is given here.

Tests used:
Bombyx mori [1] = assay: Anti-juvenile activity against newly molted third-instar larval stage of Bombyx mori Shunrei x shougetsu reared on artificial diet assessed as blackening of cuticle measured after third ecdysis; assay type: functional, organism-based
Bombyx mori [2] = assay: Anti-juvenile activity against newly molted fourth-instar larval stage of Bombyx mori Shunrei x shougetsu reared on artificial diet assessed as induction of precocious metamorphosis in presence of 20-hydroxyecdysone; assay type: functional
Bombyx mori [3] = assay: Anti-juvenile activity against newly molted third-instar larval stage of Bombyx mori Shunrei x shougetsu reared on artificial diet assessed as induction of precocious metamorphosis in presence of 20-hydroxyecdysone; assay type: functional
Bombyx mori [4] = assay: Anti-juvenile activity against newly molted fourth-instar larval stage of Bombyx mori Shunrei x shougetsu reared on artificial diet assessed as induction of precocious metamorphosis in presence of juvenile hormone agonist methoprene; assay type: functional
Bombyx mori [5] = assay: Anti-juvenile activity against newly molted third-instar larval stage of Bombyx mori Shunrei x shougetsu reared on artificial diet assessed as induction of precocious metamorphosis in presence of juvenile hormone agonist methoprene; assay type: functional
Bombyx mori [6] = assay: Anti-juvenile activity against newly molted third-instar larval stage of Bombyx mori Shunrei x shougetsu reared on artificial diet assessed as induction of precocious pupation at 1 to 100 ug/larva; assay type: functional, organism-based
Bombyx mori [7] = assay: Anti-juvenile activity against newly molted fourth-instar larval stage of Bombyx mori Shunrei x shougetsu reared on artificial diet assessed as induction of precocious pupation; assay type: functional, organism-based
Bombyx mori [8] = assay: Anti-juvenile activity against newly molted third-instar larval stage of Bombyx mori Shunrei x shougetsu reared on artificial diet assessed as induction of precocious metamorphosis at 100 ug/larva relative to control; assay type: functional
Bombyx mori [9] = assay: Anti-juvenile activity against newly molted third-instar larval stage of Bombyx mori Shunrei x shougetsu reared on artificial diet assessed as induction of precocious metamorphosis at 10 ug/larva relative to control; assay type: functional
Bombyx mori [10] = assay: Anti-juvenile activity against newly molted third-instar larval stage of Bombyx mori Shunrei x shougetsu reared on artificial diet assessed as induction of precocious metamorphosis at 1 ug/larva relative to control; assay type: functional
Bombyx mori [11] = assay: Anti-juvenile activity against newly molted third-instar larval stage of Bombyx mori Shunrei x shougetsu reared on artificial diet assessed as induction of precocious pupation at 100 ug; assay type: functional, organism-based
Bombyx mori [12] = assay: Anti-juvenile activity against newly molted fourth-instar larval stage of Bombyx mori Shunrei x shougetsu reared on artificial diet assessed as induction of precocious pupation at 100 ug; assay type: functional, organism-based
Bombyx mori [13] = assay: Anti-juvenile activity against newly molted third-instar larval stage of Bombyx mori Shunrei x shougetsu reared on artificial diet assessed as mortality at 100 ug/larva relative to control; assay type: functional

Row | Compound | Activity (Bombyx mori [9]) | Activity (Bombyx mori [11]) | Activity (Bombyx mori [12]) | also measured
1 | CCOC(=O)c1ccc(OCC(CC)Oc2ccc(C)nc2)cc1 (stereo unspecified) | 40% |  |  | Activity (Bombyx mori [1]): Active; Activity (Bombyx mori [2]): 84%; Activity (Bombyx mori [3]): 90%; Activity (Bombyx mori [4]): 0%; Activity (Bombyx mori [5]): 0%; Activity (Bombyx mori [6]): inactive; Activity (Bombyx mori [7]): inactive; Activity (Bombyx mori [8]): 83%; Activity (Bombyx mori [10]): 0%
2 | CCOC(=O)c1cccc(OCC(CC)Oc2ccc(C)nc2)c1 (stereo unspecified) |  | inactive | inactive | 
3 | CCc1cccc(OCC(CC)Oc2ccc(C)nc2)c1 (stereo unspecified) |  | inactive | inactive | 
4 | CCOC(=O)c1ccc(OCC(CC)OC(=O)C(C)(C)C)cc1 (stereo unspecified) | 23% |  |  | Activity (Bombyx mori [7]): inactive; Activity (Bombyx mori [8]): 0%; Activity (Bombyx mori [10]): 0%
5 | Cc1ccc(OCCOc2cccc(Cl)c2)cn1 | 0% |  |  | mortality (Bombyx mori [13]): 100%
6 | CCC(COc1cccc(Cl)c1)Oc1ccc(C)nc1 (stereo unspecified) |  | inactive | inactive | 
7 | CCc1ccc(OCC(CC)Oc2ccc(C)nc2)cc1 (stereo unspecified) |  | inactive | inactive | 
8 | CCC(COc1ccc(Cl)cc1)Oc1ccc(C)nc1 (stereo unspecified) |  | inactive | inactive | 
